Values quoted from earlier work, collected in US20200253976A1, “Endothelial Facilitation in Neurodegerative Diseases by Cerebral Blood Flow Enhancement” (UNIVERSITY OF MASSACHUSETTS, priority 2017, published 2020).
Where two headings read alike, the source gives them in different places. One block for each molecule: values may come before it.

Assays:
[1] = phase 2 study
eNOS = biological target: T1, eNOS (Homo sapiens, UniProt P29474); settings: endothelial dysfunction where l-arginine is rate-limiting
T1 sequence (P29474 1-1203): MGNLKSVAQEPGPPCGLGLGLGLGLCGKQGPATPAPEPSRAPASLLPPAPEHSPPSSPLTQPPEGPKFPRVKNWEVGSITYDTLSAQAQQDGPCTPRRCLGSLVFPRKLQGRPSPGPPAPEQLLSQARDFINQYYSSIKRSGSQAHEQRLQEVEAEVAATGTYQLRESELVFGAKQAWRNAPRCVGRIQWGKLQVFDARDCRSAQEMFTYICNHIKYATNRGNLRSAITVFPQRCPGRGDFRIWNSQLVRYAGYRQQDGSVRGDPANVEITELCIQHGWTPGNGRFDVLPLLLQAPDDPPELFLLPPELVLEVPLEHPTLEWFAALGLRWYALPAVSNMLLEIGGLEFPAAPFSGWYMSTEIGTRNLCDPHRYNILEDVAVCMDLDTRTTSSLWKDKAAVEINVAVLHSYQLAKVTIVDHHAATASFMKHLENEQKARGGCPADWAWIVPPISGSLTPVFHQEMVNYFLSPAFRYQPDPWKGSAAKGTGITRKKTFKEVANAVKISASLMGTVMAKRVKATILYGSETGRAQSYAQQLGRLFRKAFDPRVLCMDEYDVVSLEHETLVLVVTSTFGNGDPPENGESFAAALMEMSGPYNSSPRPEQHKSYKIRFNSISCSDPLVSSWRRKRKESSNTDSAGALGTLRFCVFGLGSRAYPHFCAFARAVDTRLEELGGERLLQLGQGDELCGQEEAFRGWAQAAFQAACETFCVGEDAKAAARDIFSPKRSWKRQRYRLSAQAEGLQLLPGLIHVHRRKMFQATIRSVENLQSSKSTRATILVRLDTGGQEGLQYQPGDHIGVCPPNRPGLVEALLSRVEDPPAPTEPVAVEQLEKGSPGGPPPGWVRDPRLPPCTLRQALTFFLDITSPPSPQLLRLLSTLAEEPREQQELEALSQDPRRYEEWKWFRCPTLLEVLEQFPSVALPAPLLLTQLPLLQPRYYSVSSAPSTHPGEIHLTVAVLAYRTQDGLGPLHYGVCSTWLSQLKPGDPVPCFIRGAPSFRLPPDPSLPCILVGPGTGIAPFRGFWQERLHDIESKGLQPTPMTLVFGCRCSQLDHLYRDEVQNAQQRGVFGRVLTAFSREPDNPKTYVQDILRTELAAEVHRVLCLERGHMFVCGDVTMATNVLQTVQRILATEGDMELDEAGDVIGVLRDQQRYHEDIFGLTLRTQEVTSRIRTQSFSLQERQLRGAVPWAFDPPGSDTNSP

NOS = settings: mouse ovarian follicles; L-arginine omitted
[2] = test system: treated subjects with Alzheimer's disease; settings: human trial in AD, stopped prematurely
[3] = in vivo

Molecule: AN-1792: Abeta active immunization (Elan Pharmaceuticals, Inc.)
Aβ in the brain of treated subjects (patients with AD; active immunization): decreased Aβ markedly
progression of dementia (patients with AD; active immunization, even when the amyloid plaques had been removed): failed to decrease the progression of dementia
brain atrophy on quantitative imaging versus control subjects (patients with AD; treated subjects with immunological response and decreased amyloid burden): greater brain atrophy
autoimmune encephalopathy (patients with AD; trial stopped): several subjects developed an autoimmune encephalopathy

headache, frequency (in vivo): 15%
nasal discharge, frequency (upper respiratory symptom): 11%
pain in throat, frequency (upper respiratory symptom): 10%
upper respiratory infection, frequency (upper respiratory symptom): 12-17%
Molecule: C[C@H](O)[C@H](O)[C@H]1CNc2nc(N)[nH]c(=O)c2N1 [Sapropterin, tetrahydrobiopterin]
abdominal pain, frequency (gastrointestinal side effect): 5%
diarrhea, frequency (gastrointestinal side effect): 8%
nausea, frequency (gastrointestinal side effect): 4%
vomiting, frequency (gastrointestinal side effect): 8%

Molecule: NC(=O)[C@@H](CCC(F)(F)F)N(Cc1ccc(-c2ncon2)cc1F)S(=O)(=O)c1ccc(Cl)cc1 [Avagacestat]
cognitive benefit [1]: no cognitive benefit

Molecule: NC(=O)NCCC[C@H](N)C(=O)O [L-citrulline]
eNOS activity on supplementation (eNOS): fully restored
compensation for L-arginine withdrawal (NOS phenotype) (NOS): partial compensation

Molecule: CC(C)[C@H](O)C(=O)N[C@@H](C)C(=O)N[C@@H]1C(=O)N(C)CCc2ccccc21 [semagacestat]
cognitive performance of treated subjects versus control / placebo [2]: significantly worse cognitive performance than control subjects
cognitive performance of treated subjects versus control / placebo ([2]; listed as Semagacestat): exacerbated cognitive decline compared with placebo

Molecule: NC(=NCCC[C@H](N)C(=O)O)NO [NG-hydroxy-L-arginine]
compensation for L-arginine withdrawal (NOS phenotype) (NOS): partial compensation

Molecule: C[C@@H](C(=O)O)c1ccc(-c2ccccc2)c(F)c1 [Tarenflurbil]
benefit in AD [3]: failed to produce any benefit
